We go through 19 compounds from patent publication US20230113037A1 (Bayer Aktiengesellschaft, priority 2019, published 2023).

Where two headings read alike, the source gives them in different places.

The target in test [1] is T1, AHR (Homo sapiens, UniProt P35869).
T1 construct: U87 MG glioblastoma cells (ATCC #HTB-14) endogenously expressing AHR; endogenous in cells; host or cells: U87 MG glioblastoma cells (ATCC #HTB-14)
T1 sequence (P35869 11-848): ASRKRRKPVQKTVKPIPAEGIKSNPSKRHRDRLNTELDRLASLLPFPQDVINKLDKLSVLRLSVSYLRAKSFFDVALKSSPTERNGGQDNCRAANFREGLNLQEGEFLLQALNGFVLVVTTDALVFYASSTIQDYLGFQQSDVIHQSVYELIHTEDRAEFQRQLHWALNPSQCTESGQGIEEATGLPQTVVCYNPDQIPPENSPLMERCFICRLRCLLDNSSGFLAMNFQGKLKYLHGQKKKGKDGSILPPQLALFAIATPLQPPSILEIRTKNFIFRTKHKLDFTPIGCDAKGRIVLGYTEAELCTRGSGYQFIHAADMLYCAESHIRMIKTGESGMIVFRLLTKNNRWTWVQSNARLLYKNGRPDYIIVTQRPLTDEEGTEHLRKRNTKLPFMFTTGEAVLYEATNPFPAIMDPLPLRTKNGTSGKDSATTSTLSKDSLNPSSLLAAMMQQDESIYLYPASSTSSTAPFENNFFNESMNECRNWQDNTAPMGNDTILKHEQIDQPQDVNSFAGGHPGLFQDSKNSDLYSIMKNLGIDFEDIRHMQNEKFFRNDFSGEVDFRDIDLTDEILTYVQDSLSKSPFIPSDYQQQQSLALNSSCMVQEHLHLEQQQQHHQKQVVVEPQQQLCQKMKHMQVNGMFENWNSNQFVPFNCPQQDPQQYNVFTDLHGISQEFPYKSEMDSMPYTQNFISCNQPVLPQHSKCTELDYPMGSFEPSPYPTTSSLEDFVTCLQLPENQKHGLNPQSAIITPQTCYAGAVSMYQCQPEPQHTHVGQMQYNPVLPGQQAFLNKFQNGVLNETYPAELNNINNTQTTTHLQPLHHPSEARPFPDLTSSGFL
Nature of the test: In vitro assay 1: antagonism in human cell line (AHR transactivation, firefly luciferase reporter, kynurenic acid prestimulated). The test is classed as cell-based. The procedure, abridged:
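U87 MG glioblastoma cells with endogenous AHR, stably carrying a DRE-driven firefly luciferase reporter and constitutive Renilla reporter, prestimulated with kynurenic acid before compound addition. Firefly and Renilla read by dual luciferase; Renilla flags toxicity; normalized to controls (150 μM kynurenic acid + 5 μM staurosporine as full inhibition); repeat values averaged or median.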
Background: A reporter such as luciferase makes a cellular process visible.

Test [2] has as its target T2, AHR (Mus musculus, UniProt P30561).
T2 sequence (P30561 1-848 P471L/N533S/M589L): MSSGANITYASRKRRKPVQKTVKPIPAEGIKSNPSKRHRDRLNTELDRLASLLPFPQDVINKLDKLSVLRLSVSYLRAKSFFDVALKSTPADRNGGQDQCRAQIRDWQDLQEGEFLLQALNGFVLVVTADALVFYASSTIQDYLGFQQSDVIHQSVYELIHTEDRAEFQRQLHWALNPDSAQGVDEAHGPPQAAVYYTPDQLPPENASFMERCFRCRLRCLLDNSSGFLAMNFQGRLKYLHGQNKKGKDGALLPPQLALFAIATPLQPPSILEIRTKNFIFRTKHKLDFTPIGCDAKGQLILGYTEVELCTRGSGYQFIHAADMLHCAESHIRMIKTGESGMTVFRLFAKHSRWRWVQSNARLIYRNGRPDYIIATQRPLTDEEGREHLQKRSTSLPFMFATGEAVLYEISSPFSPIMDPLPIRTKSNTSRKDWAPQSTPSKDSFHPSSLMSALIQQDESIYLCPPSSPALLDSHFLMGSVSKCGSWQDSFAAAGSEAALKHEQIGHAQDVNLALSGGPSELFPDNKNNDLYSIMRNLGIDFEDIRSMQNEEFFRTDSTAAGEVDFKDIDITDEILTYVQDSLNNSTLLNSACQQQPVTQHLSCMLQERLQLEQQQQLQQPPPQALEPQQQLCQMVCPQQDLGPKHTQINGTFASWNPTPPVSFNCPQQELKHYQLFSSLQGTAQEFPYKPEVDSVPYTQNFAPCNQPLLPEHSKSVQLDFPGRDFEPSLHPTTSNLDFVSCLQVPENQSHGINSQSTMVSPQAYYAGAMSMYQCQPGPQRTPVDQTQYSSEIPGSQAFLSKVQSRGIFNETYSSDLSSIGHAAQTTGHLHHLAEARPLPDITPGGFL
In words: In vitro assay 3: antagonism in mouse cell line (AHR transactivation, firefly luciferase reporter, kynurenic acid prestimulated). Format: cell-based. A digest of the protocol:
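Mouse cells stably carrying a DRE-driven, AHR-inducible firefly luciferase reporter were prestimulated with the endogenous agonist kynurenic acid before compound addition. Luciferase activity was measured by luminescence and normalized to positive and negative controls, with cells lacking kynurenic acid serving as full-inhibition control. Repeat tests are reported as mean or median.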

[3] abbreviates: AHR Antagonism Human IC50 [M], firefly luciferase reporter.
[4] abbreviates: Hepa 1c1c7 cells, 200 μM kynurenic acid, 20 hours, firefly luciferase reporter, read-out: AHR Antagonism Mouse IC50.
[5] abbreviates: mouse Hepa 1c1c7 cells, 200 μM kynurenic acid, 20 hours, read-out: AHR Antagonism Mouse IC50.

`CC(C)[C@@H](Nc1nc2c(Br)cccc2c2nc(-c3cnn(C)c3)nn12)C(=O)N1CCN(C)CC1` [Example 928, (2R)-2-{[7-bromo-2-(1-methyl-1H-pyrazol-4-yl)[1,2,4]triazolo[1,5-c]quinazolin-5-yl]amino}-3-methyl-1-(4-methylpiperazin-1-yl)butan-1-one]: the IC50 (as a rule, the midpoint of a concentration-inhibition curve) worked out at 1.81e-08 M on AHR [1] (setting [3]) and 5.76 nM at AHR [2] (setting [4]).

`Cn1cc(-c2nc3c4cccc(C(F)(F)F)c4nc(NC4C(=O)NCC4(C)C)n3n2)cn1` (single isomer, unassigned; (-)) [Example 729, (−)-4,4-dimethyl-3-{[2-(1-methyl-1H-pyrazol-4-yl)-7-(trifluoromethyl)[1,2,4]triazolo[1,5-c]quinazolin-5-yl]amino}pyrrolidin-2-one]: the IC50 on AHR [1] (AHR Antagonism Human IC50 [M]) is 3.6e-06 M; at AHR [2] (setting [5]) it was 161 nM.

In the case of `COc1ccc(-c2nc3c4cccc(Br)c4nc(N[C@H](C)C(=O)N4C[C@H]5C[C@@H]4CN5C)n3n2)cc1` [Example 903, (2R)-2-{[7-bromo-2-(4-methoxyphenyl)[1,2,4]triazolo[1,5-c]quinazolin-5-yl]amino}-1-[(1R,4R)-5-methyl-2,5-diazabicyclo[2.2.1]heptan-2-yl]propan-1-one], the IC50 turned out to be 4.09e-09 M at AHR [1] (setting [3]) and 6.59 nM at AHR [2] (setting [4]).

`CC[C@@H](Nc1nc2ccccc2c2nc(-c3cnccc3C(F)(F)F)nn12)C(N)=O` [Example 491, (2R)-2-({2-[4-(trifluoromethyl)pyridin-3-yl][1,2,4]triazolo[1,5-c]quinazolin-5-yl}amino)butanamide]: the IC50 was found to be 9.72e-08 M against AHR [1] (AHR Antagonism Human IC50 [M]) and 50.5 nM on AHR [2] (setting [5]).

On to `CC[C@@H](Nc1nc2c(C(F)(F)F)cccc2c2nc(-c3ccnn3C)nn12)C(N)=O` [Example 806, (2R)-2-{[2-(1-methyl-1H-pyrazol-5-yl)-7-(trifluoromethyl)[1,2,4]triazolo[1,5-c]quinazolin-5-yl]amino}butanamide], for which the IC50 is 3.49e-09 M at AHR [1] (setting [3]) and 1.14 nM at AHR [2] (setting [4]).

Take `CCCNC(=O)[C@@H](C)Nc1nc2c(Br)cccc2c2nc(-c3cnn(C)c3)nn12` [Example 796, N^2-[7-bromo-2-(1-methyl-1H-pyrazol-4-yl)[1,2,4]triazolo[1,5-c]quinazolin-5-yl]-N-propyl-D-alaninamide]: the results for the IC50 at AHR [1] (setting [3]) and on AHR [2] (setting [4]) were 1.37e-08 M and 20.2 nM, respectively.

Take `COc1cccc(-c2nc3c4ccccc4nc(N[C@H](CC(C)C)C(=O)O)n3n2)c1` [Example 93, N-[2-(3-methoxyphenyl)[1,2,4]triazolo[1,5-c]quinazolin-5-yl]-D-leucine]: the concentration for half-maximal inhibition (IC50) against AHR [1] (AHR Antagonism Human IC50 [M]) was 1.52e-07 M; on AHR [2] (setting [5]) it was 427 nM.

Take `COCCNC(=O)[C@H](Nc1nc2c(Br)cccc2c2nc(-c3ccc(OC)cc3)nn12)C(C)C` [Example 923, N^2-[7-bromo-2-(4-methoxyphenyl)[1,2,4]triazolo[1,5-c]quinazolin-5-yl]-N-(2-methoxyethyl)-D-valinamide]: the values for the IC50 at AHR [1] (setting [3]) and on AHR [2] (setting [4]) were 3.26e-09 M and 2.13 nM, respectively.

As to `O=C1NCCCC[C@H]1Nc1nc2c(C(F)(F)F)cccc2c2nc(-c3cnn(CC4CC4)c3)nn12` [Example 742, (3R)-3-({2-[1-(cyclopropylmethyl)-1H-pyrazol-4-yl]-7-(trifluoromethyl)[1,2,4]triazolo[1,5-c]quinazolin-5-yl}amino)azepan-2-one], the IC50 against AHR [1] (AHR Antagonism Human IC50 [M]) came to 8.31e-10 M; at AHR [2] (setting [5]) it was 1.9 nM.

Regarding `COc1cccc(-c2nc3c4ccccc4nc(N[C@@H](C(N)=O)[C@H](C)OCc4ccccc4)n3n2)c1` [Example 97, O-benzyl-N^2-[2-(3-methoxyphenyl)[1,2,4]triazolo[1,5-c]quinazolin-5-yl]-D-threoninamide], the IC50 against AHR [1] (AHR Antagonism Human IC50 [M]) amounted to 1.56e-07 M; at AHR [2] (setting [5]), 84.1 nM.

In the case of `CCSc1cccc2c1nc(N[C@@H]1CNCCNC1=O)n1nc(-c3ccc(OC)cc3)nc21` [Example 939, (6R)-6-{[7-(ethylsulfanyl)-2-(4-methoxyphenyl)[1,2,4]triazolo[1,5-c]quinazolin-5-yl]amino}-1,4-diazepan-5-one], the IC50 amounted to 1.19e-08 M at AHR [1] (setting [3]) and 22.5 nM at AHR [2] (setting [4]).

With `O=C1NCCCC[C@H]1Nc1nc2c(C(F)(F)F)cccc2c2nc(-c3ccc(Cl)cc3)nn12` [Example 833, (3R)-3-{[2-(4-chlorophenyl)-7-(trifluoromethyl)[1,2,4]triazolo[1,5-c]quinazolin-5-yl]amino}azepan-2-one], the half-inhibitory concentration (IC50) was determined as 1.12e-09 M at AHR [1] (setting [3]) and 1.27 nM at AHR [2] (setting [4]).

On to `COc1ccc(-c2nc3c4ccccc4nc(N[C@@H]4CCCCNC4=O)n3n2)cc1C` [Example 627, (3R)-3-{[2-(4-methoxy-3-methylphenyl)[1,2,4]triazolo[1,5-c]quinazolin-5-yl]amino}azepan-2-one], for which the figures for the IC50 at AHR [1] (AHR Antagonism Human IC50 [M]) and on AHR [2] (setting [5]) were 6.68e-10 M and 0.326 nM, respectively.

Take `O=C1NCCNCC1Nc1nc2cccc(C3CC3)c2c2nc(-c3cccc(F)c3)nn12` (single isomer, unassigned) [Example 301, 6-{[10-cyclopropyl-2-(3-fluorophenyl)[1,2,4]triazolo[1,5-c]quinazolin-5-yl]amino}-1,4-diazepan-5-one]: the figures for the IC50 on AHR [1] (read-out: AHR Antagonism Human IC50) and on AHR [2] (setting [5]) were more than 2e-05 M and 2240 nM, respectively.

Consider `Cc1nc(-c2nc3c4ccccc4nc(N[C@@H]4CCCCNC4=O)n3n2)co1` [Example 70, (3R)-3-{[2-(2-methyl-1,3-oxazol-4-yl)[1,2,4]triazolo[1,5-c]quinazolin-5-yl]amino}azepan-2-one], for which the results for the IC50 on AHR [1] (AHR Antagonism Human IC50 [M]) and on AHR [2] (setting [5]) were 2.44e-08 M and 51.7 nM, respectively.

On to `CCn1cc(-c2nc3c4cccc(S(C)(=O)=O)c4nc(N[C@@H]4CCCCNC4=O)n3n2)c(C)n1` [Example 847, (3R)-3-{[2-(1-ethyl-3-methyl-1H-pyrazol-4-yl)-7-(methanesulfonyl)[1,2,4]triazolo[1,5-c]quinazolin-5-yl]amino}azepan-2-one], for which the IC50 amounted to 3.02e-09 M against AHR [1] (setting [3]) and 60.1 nM at AHR [2] (setting [4]).

In the case of `COc1ccc(-c2nc3c4cccc(Br)c4nc(N[C@H](C)C(=O)NCCN4CCNCC4)n3n2)cc1` [Example 992, N^2-[7-bromo-2-(4-methoxyphenyl)[1,2,4]triazolo[1,5-c]quinazolin-5-yl]-N-[2-(piperazin-1-yl)ethyl]-D-alaninamide-hydrogen chloride (1/2)], the IC50 was 3.94e-09 M against AHR [1] (setting [3]) and 7.74 nM on AHR [2] (setting [4]).

For the compound `O=C1NCCCC[C@H]1Nc1nc2c(C(F)(F)F)cccc2c2nc(-c3cnn(CC4CCC4)c3)nn12` [Example 744, (3R)-3-({2-[1-(cyclobutylmethyl)-1H-pyrazol-4-yl]-7-(trifluoromethyl)[1,2,4]triazolo[1,5-c]quinazolin-5-yl}amino)azepan-2-one], the IC50 was 1.69e-09 M against AHR [1] (AHR Antagonism Human IC50 [M]) and 11.6 nM at AHR [2] (setting [5]).

With `O=C1NCCCC[C@@H]1Nc1nc2ccccc2c2nc(-c3cccc(F)c3)nn12` [Example 10, (3S)-3-{[2-(3-fluorophenyl)[1,2,4]triazolo[1,5-c]quinazolin-5-yl]amino}azepan-2-one], the IC50 against AHR [1] (AHR Antagonism Human IC50 [M]) turned out to be 2.71e-08 M; at AHR [2] (read-out: AHR Antagonism Mouse IC50, mouse Hepa 1c1c7 cells, 200 μM kynurenic acid, 20 hours) it was 7.93 nM.
